Data reported in paper PMC5048394, “Development and substrate specificity screening of an in vivo biosensor for the detection of biomass derived aromatic chemical building blocks” (Chemical Communications (Cambridge, England), 2016).

Test system: PLC biosensor
Assay: microbe, parasite or virus in culture
Assay type: cell-based, E. coli BL21
Details: for EC10: BL21; for Emax: BL21, read-out: Induction; for maximal fold induction: BL21, read-out: Signal range (max/min), substrate screening, PLC biosensor, E. coli BL21; for EC50 / EC90 / Induction / Sensing range (predicted) / Change in potency relative to sinapic acid (4) / Activity against the FerC biosensor: PLC biosensor; for EC50 / EC90 / Change in potency relative to sinapic acid (4) / Activity against the FerC biosensor: E. coli BL21; for Induction: E. coli BL21, 0.32–1000 μM; for Sensing range (predicted): E. coli BL21, text; for Output signal / efficacy: relative to the PLC biosensor response curve with ferulic acid
Protocol: Cells were centrifuged, washed and re-suspended with PBS buffer. The expression output was then analyzed by monitoring the fluorescence normalised to cell density (RFU/OD600) in a multimode plate reader (Methods, ESI ^†).
The sequences containing the PLC, PPC and PferB promoters, a RBS, and a Hexa-Histidine tag, flanked by SphI/NdeI were synthetized (GeneART, ThermoFisher). The sequences were enzyme restricted with SphI/NdeI and cloned in pET44eGFP,2 upstream to the eGFP gene, replacing the T7 promoter region generating respectively, the pET44PLCeGFP, pET44PPCeGFP and pET44PferBeGFP vectors.
The FerCA DNA sequence containing the ferA and ferC genes, individually flanked by a PLacI promoter and an rrn_B1 terminator, was synthetized by GeneARTTM (ThermoFisher).
The construct was cloned in a p15 plasmid flanked by NaeI/KasI restriction sites generating […]
the p15FerCA vector. […]
Biosensors Performance and Screening Methods
Reporter controls and the biosensor systems PLC, PPC and PferB were respectively generated by transformation of pET44PLCeGFP, pET44PPCeGFP and pET44PFerBeGFP vectors alone or with p15FerCA in BL21 and DH10B chemically competent E. coli cells. A single colony of each system was grown in LB media supplemented with antibiotics at 37 °C with shaking at 180rpm for 16 hours. Cultures were diluted (1:100) in fresh LB media with appropriate antibiotics, re-incubated at 37 °C with shaking until OD ~0.6 and transferred (450 μL) to multi- […]
μM and 1000 μM. Induction plates were incubated at 37 °C, with shaking at 1000 RPM (Stuart microtitre plate shaker incubator) for 3 hours. Cells were harvested by centrifugation, washed twice and re-suspended with PBS buffer. Expression output was analyzed by monitoring the fluorescence normalised to cell density (RFU/OD) in a multimode plate reader. […]
Compounds for screening were selected using cinnamic acid as a reference structure. The 58 selected compounds were tested with the PLC biosensor in E. coli BL21 cells. The substrate screening assays were performed using concentrations ranging from 0.32 μM to 1000 μM, as described for Ferulic acid. […]
Data Processing and Curve Fitting
Biosensor signal output (eGFP expression) was measured as Relative Fluorescence Units (RFU) and normalised to cell density (OD600). The background auto-fluorescence of E. coli was subtracted from RFU/OD and was normalised (%) to the pLC biosensor response curve to ferulic acid for each experiment. The normalised data was plotted and fitted with a dose-response curve using the Levenberg Marquardt logistic growth/sigmoidal algorithm, using the Origin 2015 (OriginLab, Northampton MA USA) program. The biomass screening data was […]

[1] = Escherichia coli, BL21, substrate screening

| SMILES | EC10 (Escherichia coli) | Emax (Escherichia coli) | maximal fold induction (Escherichia coli) | EC50 [1] | EC90 [1] | Induction (substrate screening) | EC50 (substrate screening) | Sensing range (predicted) (substrate screening) | Change in potency relative to sinapic acid (4) (substrate screening) | Output signal / efficacy (substrate screening) | Activity against the FerC biosensor (substrate screening) |
| --- | --- | --- | --- | --- | --- | --- | --- | --- | --- | --- | --- |
| O=C(O)C=Cc1ccc(O)cc1 [compound 2, p-Coumaric acid] | 3.9 µM | > 70% | 25 | 26.1 ± 3.8 µM | 174 µM | H (high output signals, and hence good efficacy (>70%)) | – | – | – | – | – |
| Nc1ccc(C=CC(=O)O)cc1 [compound 3, 3-(4-Aminophenyl)-2-propenoic acid] | 12 µM | > 70% | 28.1 | 110 ± 25.7 µM | 1010 µM | H (high output signals, and hence good efficacy (>70%)) | – | – | – | – | – |
| COc1cc(/C=C/C(=O)O)cc(OC)c1O [compound 4, Sinapic acid] | 19.8 µM | > 70% | 15.4 | > 200 µM | 4990 µM | H (high output signals, and hence good efficacy (>70%)) | 314 ± 55.8 µM | 225 fold | – | – | – |
| COc1ccc(C=CC(=O)O)cc1O [compound 5, 3-Hydroxy-4-methoxycinnamic acid] | 36.3 µM | > 70% | 33.5 | > 200 µM | 1510 µM | H (high output signals, and hence good efficacy (>70%)) | 234 ± 15.4 µM | – | – | – | – |
| COc1cc(C=CC(=O)O)cc(O)c1O [compound 6, 3,4-Dihydroxy-5-methoxycinnamic acid] | 33.9 µM | 40 to 60% | 14.8 | 746 ± 118 µM | 16400 µM | M (moderate signal (60–40%)) | – | 485 fold | 2.5 fold | – | – |
| O=C(O)C=Cc1ccc(O)cc1O [compound 7, 2,4-Dihydroxycinnamic acid] | 131 µM | 40 to 60% | 9.6 | 823 ± 45.6 µM | 5170 µM | M (moderate signal (60–40%)) | – | – | – | – | – |
| COc1ccc(C=CC(=O)O)cc1OC [compound 8, 3,4-Dimethoxycinnamic acid] | 228 µM | 40 to 60% | 11.4 | 825 ± 13.2 µM | 2990 µM | M (moderate signal (60–40%)) | – | – | – | – | – |
| O=C(O)/C=C/c1ccc(O)c(O)c1 [compound 9, Caffeic acid] | 222 µM | 40 to 60% | 11.2 | 1180 ± 88.5 µM | 6250 µM | M (moderate signal (60–40%)) | – | – | – | – | – |
| O=C(O)C=Cc1ccc([N+](=O)[O-])cc1 [compound 10, 4-Nitrocinnamic acid] | 158 µM | 40 to 60% | 9.5 | 1560 ± 96.8 µM | 15500 µM | M (moderate signal (60–40%)) | – | – | – | – | – |
| COc1cc(C=CC(=O)O)cc(OC)c1OC [compound 11, 3,4,5-Trimethoxycinnamic acid] | 378 µM | < 40% | 6.7 | > 2000 µM | 14800 µM | L (low signals (<40%)) | 2360 ± 265 µM | – | 8 fold | < 40% | – |
| COc1cc(CCC(=O)O)ccc1O [compound 12, 3-(4-Hydroxy-3-methoxyphenyl)propionic acid] | 702 µM | < 40% | 3.3 | – | 31300 µM | L (low signals (<40%)) | – | – | – | < 40% | low activity |
| COc1cccc(C=CC(=O)O)c1 [compound 13, 3-Methoxycinnamic acid] | 816 µM | < 40% | 4.8 | – | – | L (low signals (<40%)) | – | – | – | < 40% | – |
| O=C(O)/C=C/c1ccccc1 [compound 14, cinnamic acid] | – | – | – | – | – | – | – | – | – | – | no activity |
| Cc1ccc(C=CC(=O)O)cc1 [compound 29, 4-methylcinnamic acid] | – | – | – | – | – | – | – | – | – | – | devoid of activity |
